Assay results: article PMC4456413, “Trypanothione Reductase: A Target Protein for a Combined In Vitro and In Silico Screening Approach” (PLoS Neglected Tropical Diseases, 2015)
Read-outs that look alike come from different tables or passages of the source.

Experiments:
[1] = system: bloodstream T. brucei (strain 449); assay: Cell culture activity determination by counting living cells; type: cell-based; conditions: for EC50: Trypanosoma brucei, read-out: EC50, inhibition of parasite proliferation (living cells counted)
Method: (§1) The compounds used in the enzymatic inhibitory testing and the in silico screening were available as stock solutions in DMSO or in solid from a compound library maintained at MSD. All IC50 determinations were performed starting from solid material. Recombinant T. cruzi TR (CL strain) was prepared using a published expression system. TS2 was prepared enzymatically as described previously. For antiparasitic studies, culture-adapted bloodstream T. brucei parasites of cell line 449 were used. These cells are descendants of strain Lister 427 stably transfected with the gene for the tetracycline repressor.
Compounds were dissolved in DMSO to 10 mM stock solutions and added to bloodstream T. brucei (strain 449) in concentrations of 100, 50, 5, 0.5, and 0.05 μM in 24-well plates. The final DMSO content in the cultures was 1, 0.5, 0.05, 0.005 and 0.0005%, respectively. The initial cell density was 2500 cells/ml. After 48 h and 72 h incubation at 37°C in HMI-9 medium, viable cells were counted in a Neubauer chamber. The assay was performed in triplicate. The parasite strain and the culture conditions are described in the literature.

[2] = molecular target: T1, T. cruzi TR (Trypanosoma cruzi, UniProt P28593); assay: Ki determination and inhibition type on TR; type: biochemical; conditions: for Ki (Fig 7, uncompetitive mode of inhibition assumed): mean of two independent experiments, no unit printed in the figure, in µM; for binding mode (inhibition type): SigmaPlot Enzyme Kinetics Module
T1 construct: made in house
T1 sequence (P28593 whole entry): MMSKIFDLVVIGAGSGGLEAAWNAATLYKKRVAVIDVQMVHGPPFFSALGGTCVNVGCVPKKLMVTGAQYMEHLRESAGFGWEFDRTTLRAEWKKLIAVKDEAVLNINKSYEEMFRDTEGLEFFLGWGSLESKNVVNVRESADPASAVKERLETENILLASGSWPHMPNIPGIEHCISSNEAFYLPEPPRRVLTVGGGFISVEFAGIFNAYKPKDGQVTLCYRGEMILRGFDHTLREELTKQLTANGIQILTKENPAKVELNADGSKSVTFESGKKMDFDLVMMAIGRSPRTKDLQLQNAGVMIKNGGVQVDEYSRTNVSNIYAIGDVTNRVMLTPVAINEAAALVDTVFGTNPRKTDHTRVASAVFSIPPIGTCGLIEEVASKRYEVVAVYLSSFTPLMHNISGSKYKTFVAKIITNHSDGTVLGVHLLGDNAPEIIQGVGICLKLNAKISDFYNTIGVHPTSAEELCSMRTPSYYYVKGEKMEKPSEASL
Method: (§2) The kinetic analysis of TR was performed in 384-well plates (Greiner Bio-One GmbH, Frickenhausen, Germany). The reaction mixture (50 μl) contained 5 mU/ml TR, 40 mM Hepes, pH 7.5, 1 mM EDTA, 300 μM NADPH (Sigma-Aldrich), 0.1 mg/ml BSA, and 0.01% Pluronic (BASF). The detergent was used to prevent the formation of droplets during pipetting and had no negative effects on the assay kinetics. In a volume of 30 μl, the assay components and the inhibitor were pre-incubated for 30 minutes and the reaction started by adding 20 μl of 375 μM TS2 resulting in final concentrations of 150 μM TS2 and 2% DMSO. The absorption decrease at 340 nm was measured by start and end point determination resulting in a delta of the optical density (delta A) for 30 min. All experiments were performed at room temperature. The TR concentration was kept constant at 5 mU/ml for all types of experiments. Therefore, after an initial calculation of the turnover number (kcat), only delta A values under identical conditions were compared. Initial screening was performed twice in two independent experiments.
Measurements were performed at 60, 80, 120, and 200 μM TS2 and five inhibitor concentrations resulting in 20 different data points per inhibitor. […] SigmaPlot 10 (Systat Software, Inc., San Jose, USA) with the Enzyme Kinetics Module was used to evaluate the inhibition type and Ki values. This software automatically estimates the initial parameters for different fit models, and uses the Marquardt-Levenberg algorithm to determine the parameter values. A detailed statistical report as well as a data report is generated to compare multiple models and graphs. Based on these statistics, the appropriate binding model can be selected. Graphs are created based on the models and the calculated parameter values instead of fitting each individual inhibitor concentration curve.

[3] = molecular target: T1, T. cruzi TR; assay: biochemical
Method: as §1
as §2, with “The detergent was used to prevent the formation of droplets during pipetting and had no negative effects on the assay kinetics.” left out
Eleven compound concentrations were used ranging from 100–0.01 μM or 200–0.004 μM. The compounds were freshly dissolved in DMSO. All measurements were performed twice in three independent series. Enzyme activities were plotted versus increasing inhibitor concentrations. IC50 values were calculated using the four-parameter equation model 205 and the option “unlock” from the XLfit add-in (IDBS, Guildford, United Kingdom) in Excel (Microsoft Corporation, Redmond, WA).
A robust NADPH-linked photometric assay was chosen that firstly had to be adapted to the high throughput screening format. The assay volume was reduced from the 1 ml cuvette format to 50 μl total volume in 384 well plates. […] In order to stabilize the enzyme and to prevent adhesion and reduce surface tension as well as the formation of droplets in the small wells, 0.1 mg/ml BSA and 0.01% detergent (Pluronic) were added to the reaction mixture.

[4] = system: bloodstream T. brucei wild-type cells; assay: EC50 determination by ATPlite 1step assay, wild-type cells; type: cell-based; conditions: Trypanosoma brucei
Method: (§3) The ATPlite 1step assay system (PerkinElmer, Waltham, MA, USA) was used as described in Füller et al. to quantify T. brucei survival in medium-throughput dose-response series. Experiments were conducted in 96-well microplates (PerkinElmer, Waltham, MA, USA), each well containing 90 μl cell-culture and 10 μl compound. Initial cell densities were 2500 cells/ml. […] Unfortunately, compound 3 was no longer available for testing. […] For each compound, three identical plates were prepared, incubated at 37°C and analyzed after 24 h, 48 h, and 72 h, respectively. Samples from each cell-line left untreated were added to the plates prior to each measurement as additional controls. 50 μl of the ATPlite 1step solution (PerkinElmer, Waltham, MA, USA) were added to each well and the relative luminescence was measured immediately using a VICTOR Multilabel Plate Reader (PerkinElmer, Waltham, MA, USA) at room temperature. The values obtained were plotted against the logarithmic compound concentrations. A dose-response curve was generated from which EC50-values were calculated using the program PRISM 5.0 (GraphPad Software, La Jolla, CA, USA).
(§4) The parasites were cultured in the presence of different concentrations of the compounds and after 48 h and 72 h living cells were counted. […] The assay is based on the emission of light caused by the reaction of ATP with D-luciferin in the presence of luciferase, which is proportional to the amount of ATP serving as a marker for cell viability. […] Unfortunately, the T. brucei strain allowing the down-regulation of TR which was generated more than a decade ago in the laboratory of Christine Clayton is not available anymore. Therefore, this tet-inducible overexpressing system leading to up to three fold higher TR levels had to be used instead. Wild-type cells treated with 1 μg/ml tetracyclin were included to exclude any effect of the antibiotic on parasite proliferation.

[5] = system: T. brucei parasites transfected with pHD1700-TbTR (TR-Over-expressing cells); assay: EC50 determination by ATPlite 1step assay, TR-over-expressing cells; type: cell-based; conditions: Trypanosoma brucei
Method: as §3, §4

[6] = system: T. brucei; conditions: read-out: EC50, inhibition of proliferation of T. brucei; cited from earlier work
[7] = molecular target: TR; parameters: method as in ref 39 (mepacrine), 42 (BG237), 43 (chlorhexidine); conditions: published data used for assay validation; ref 39 (mepacrine), 42 (BG237), 43 (chlorhexidine); cited from earlier work
[8] = molecular target: T1, T. cruzi TR; assay: Mode of inhibition study: reversibility of binding (Amicon filter wash-out, then standard TR assay); type: biochemical
Method: Therefore, Amicon Ultra 0.5 ml centrifugal filters with a cut-off of 10,000 MW (Millipore Corporation, Billerica, MA, USA) were washed with 400 μl TR assay buffer and centrifuged for 5 min at 12,500 rpm at room temperature. Remaining buffer was removed by placing the filter upside down into a microcentrifuge tube and centrifugation at 3,500 rpm for 2 min. […] The filter was centrifuged for 15 min at 12,500 rpm, washed three times with 400 μl buffer and centrifuged again. The retentate was collected by placing the filter upside down on a new tube and centrifugation at 3,500 rpm for 2 min. The recovered protein solutions were subjected to a standard TR assay.
A reaction mixture containing TR, inhibitor and NADPH was incubated for 30 minutes. […] Afterwards, the protein was separated from the low molecular mass components by centrifugation in an Amicon tube. Inhibitors with a reversible binding mode would be washed out, whereas irreversible binders remain bound to the protein. Finally, the recovered protein solution was subjected to a standard assay to determine the remaining activity. Two controls were run to determine the maximum activity that could be recovered. One contained the protein assay mixture without inhibitor, while the second control was a mixture of TR and the reversible inhibitor chlorhexidine. […] Subsequently the inhibitor type and constants were determined.

[9] = parameters: method as in ref 47 = [47]; 47 PubChem (2014) Chlorhexidine (CID 9552079), sections “Biomedical Effects and Tixicity” and “Biomolecular Interactions and Pathways”. Available: http://pubchem.ncbi.nlm.nih.gov/summary/summary.cgi?c; conditions: in words; cited from earlier work
[10] = 60-200 μM TS2, two independent experiments
[11] = 60-200 μM TS2, two independent experiments, read-out: Ki, assumed inhibitor type competitive
[12] = 60-200 μM TS2, two independent experiments, read-out: Ki, assumed inhibitor type noncompetitive
[13] = HTS format, Ki ± SD (n = 3), Table 1, read-out: Ki Measured

SMILES	Ki, assumed inhibitor type uncompetitive [2, 10] [µM]	Ki [2, 11] [µM]	Ki [2, 12] [µM]	Ki (Fig 7, uncompetitive mode of inhibition assumed) [2]	IC50 [3] [µM]	EC50 [1] [µM]	also measured
NS(=O)(=O)c1ccc(Nc2cc(Cl)c3nonc3c2[N+](=O)[O-])cc1 [Compound 4]	0.80 ± 0.10	0.19 ± 0.07	1.11 ± 0.13	0.80 ± 0.10	0.48 ± 0.02	–	EC50, inhibition of parasite proliferation (living cells counted) ([1]; after 48 h and 72 h): not active
O=[N+]([O-])c1c(Sc2ncnc3ccccc23)cc(Cl)c2nsnc12 [Compound 2]	0.88 ± 0.08	0.26 ± 0.12	1.3 ± 0.12	0.88 ± 0.08	0.58 ± 0.09	5 to 50	EC50 ([4]; read-out: EC50 24 h, Wild-type cells, ATPlite, 24 h, mean ± SD of three series): 56.4 ± 2 µM; EC50 ([4]; read-out: EC50 48 h, Wild-type cells, ATPlite, 48 h, mean ± SD of three series): 33 ± 2.2 µM; EC50 ([4]; read-out: EC50 at 24 h (ATPlite), 24 h, cell type not given): 42 µM; EC50 ([4]; read-out: EC50 at 48 h (ATPlite), 48 h, cell type not given): 42 µM; EC50 ([4]; 72 h, cell type not given, read-out: EC50 after 72 h (ATPlite)): 58 µM; EC50 ([4]; ATPlite, 72 h, series containing up to 150 μM compound = 1.5% DMSO, which affects cell viability, read-out: EC50 72 h, Wild-type cells): 55.9 ± 1.3 µM; EC50 ([5]; 24 h, read-out: EC50 24 h, TR-Over-expressing cells): 37.6 ± 1.9 µM; EC50 ([5]; 48 h, read-out: EC50 48 h, TR-Over-expressing cells): 46.9 ± 3.1 µM; EC50 ([5]; 72 h, read-out: EC50 72 h, TR-Over-expressing cells): 82 ± 1.6 µM
CC1CS(=O)(=O)CCN1/N=C/c1ccc([N+](=O)[O-])o1 (stereo not shown) [nifurtimox]	–	–	–	–	–	–	EC50 [6]: 2.5 µM
O=C(Nc1ccccc1)OCCSc1ccc([N+](=O)[O-])c2nonc12 [Compound 1]	0.23 ± 0.02	0.06 ± 0.03	0.33 ± 0.03	0.23 ± 0.02	0.27 ± 0.01	–	–
[H]/N=C(\N/C(=N/[H])NCCCCCCNC(=N)NC(=N)Nc1ccc(Cl)cc1)Nc1ccc(Cl)cc1 [Chlorhexidine, reference compound]	–	–	–	–	26 ± 2	0.1 to 0.2	Ki [7]: 2 µM; reversible or irreversible binding to the enzyme ([8]; 100 μM inhibitor, 300 μM NADPH, 30 min incubation, wash-out): reversible; TR activity recovered compared to the initial kinetics ([8]; after wash-out of the inhibitor): 70–80%; Ki [2, 13]: 4 ± 1 µM; binding mode (inhibition type) [2]: competitive binding mode; permeability described in pharmacokinetic studies [9]: poor permeability
CCN(CC)CCCC(C)Nc1c2ccc(Cl)cc2nc2ccc(OC)cc12 (stereo not shown) [Mepacrine, reference compound]	–	–	–	–	> 200	–	Ki [7]: 19 µM; Ki [2, 13]: 20 ± 5 µM; binding mode (inhibition type) [2]: competitive binding mode; Ki ([2]; three independent experiments, fitted to the relevant binding model, read-out: measured Ki (Lineweaver-Burk plots, Fig 3)): 20.7 ± 5.47 µM
O=[N+]([O-])c1c(Cl)cc(Cl)c2nsnc12 [Compound 3]	0.64 ± 0.06	0.15 ± 0.09	0.91 ± 0.08	0.64 ± 0.06	0.61 ± 0.09	5 to 50	–
